Test results as given in patent publication US10912760B1, “Method of inhibiting cancer metastasis” (Chung Shan Medical University, priority 2019, dated 2021).

Legend:
DLD-1 cells = assay: Ex vivo xenograft mice model: pretreated DLD-1 cells injected into spleen and peritoneal site; format: in vivo, Balb/c nude mice
Protocol: Luciferase expressing DLD-1 cells were pretreated with or without 30 μM Camphorataimide B for 24 hours, and then injected into the abdomen and spleen of Balb/c nude mice (five mice for each group), 35 days after implantation, the representative ex vivo images for liver and abdominal metastasis burden in xenografted animals were monitored using bioluminescent imaging (BLI).
FIG. 2B: Quantitation of results of FIG. 2A. Luciferase expressing DLD-1 cells were pretreated with or without 30 μM Camphorataimide B for 24 hours, and then injected into the abdomen and spleen of Balb/c nude mice. After 35 days implantation, the mice were photographed and tumor metastatic capability was analyzed. * and ** represented P<0.01 and P<0.001 as compared to untreated group, respectively.
FIG. 2C: Camphorataimide B suppressed hepatic and abdominal metastasis of DLD-1 cells in ex vivo xenograft mice model. DLD-1 cells were pretreated with or without 30 μM Camphorataimide B for 24 hours, and then spleeny and intraperitoneally injected into Balb/c mice, respectively. After 35 days, the mice were sacrificed and the tissues were obtained and photographed.
FIG. 2D: Quantitation of results of FIG. 2C. DLD-1 cells were pretreated with or without 30 μM Camphorataimide B for 24 hours, and then spleeny and intraperitoneally injected into Balb/c mice, respectively. After 35 days, the mice were sacrificed and photographed. Total weight of tumor foci from the metastatic tissues were presented and quantitated. *, P<0.01 and P<0.001 between the indicated groups.
FIG. 2E: Camphorataimide B suppressed metastasis in ex vivo xenograft mice model. […]
(§1) Male Balb/c nude mice aged four weeks were purchased from National Laboratory Animal Center of Taiwan (Taipei City, Taiwan) and maintained under supervision of the Institutional Animal Care and Use Committee at Chung Shan Medical University. […] The liver metastasis burden was monitored weekly by bioluminescence imaging (BLI). […]

[1] = test system: F-actin in colon cancer cells (DLD-1, SW480 and SW620); assay: Immunofluorescence (phalloidin) staining of F-actin cytoskeleton; format: cell-based, human; conditions: confocal microscope, compared to control
Protocol: FIG. 1F: Effect of Camphorataimide B on cytoskeleton structure of colon cancer cells. The treated cells were seeded on a matrix-coated dish, and then F-actin (red) was detected by immunofluorescence staining, while the nuclei (blue) were detected by DAPI staining. Fluorescent images were acquired by using confocal microscopy. Scale bars, […].
Adherent cells were fixed on the glass slides using 4% ice-cold formaldehyde and reacted with blocking buffer and 0.5% Triton X-100 for 1 hour at room temperature. The reacted cells were incubated with primary antibodies overnight at 4° C. The bound primary antibodies were detected using Alexa Fluor-labeled secondary antibody (Jackson ImmunoResearch Laboratories, West Grove, Pa., USA). Alexa Fluor-conjugated phalloidin (Cell Signaling) was used for detection of polymerized F-actin microfilaments. Fluorescence image was acquired by using a laser scanning confocal microscope system (Zeiss 510 meta, Zeiss, Oberkochen, Germany).

[2] = test system: colon cancer cells (DLD-1, SW480 and SW620); assay: Cell invasion assay (Matrigel coated transwell); format: cell-based, human
Protocol: (§2) FIG. 1A: Effect of Camphorataimide B on migration and invasion of colon cancer cells. For migration assay, three colon cancer cells (DLD-1, SW480 and SW620) were pretreated with the indicated concentrations of Camphoratamide B for 24 hours, seeded onto transwell inserts, and then incubated for 12 hours. For invasion assay, the three colon cancer cells were pretreated with the indicated concentrations of Camphorataimide B for 24 hours, seeded onto Matrigel coated transwell inserts, and then incubated for 16 hours. After the treatments, numbers of cell on the lower surface membrane were stained, photographed and counted for quantitation of migrated and invaded cells.
(§3) FIG. 1B: Quantitation of effect of Camphorataimide B on migration and invasion of colon cancer cells. Quantitative results were presented as means±SD. Three independent experiments were performed for statistical analysis. * and ** represented P<0.01 and P<0.001 as compared to control, respectively.
(§4) Cells were pretreated with Camphorataimide B for 24 hours, harvested and then seeded on to 24-well cell culture inserts (8 μm pore size, Millipore). […] The stained cells were photographed and quantified form five random fields under microscopic examination. […] Cells invaded into the lower surface of the insert were quantitated as described earlier.

breast cancer cells = conditions: reported; cited from earlier work
[3] = test system: colon cancer cells (DLD-1, SW480 and SW620); assay: Soft agar colony formation assay; format: cell-based, human; conditions: 1 week
Protocol: FIG. 1E: Effect of Camphorataimide B on colony formation of colon cancer cells. The three colon cancer cells were pretreated with indicated concentration of Camphorataimide B for 24 hours, seeded on soft agar plates, and then incubated for one week. After the treatments, the number of colonies was quantitated. Quantitative results were presented as means±SD. Three independent experiments were performed for statistical analysis. * and ** represented P<0.01 and P<0.001 as compared to control, respectively.
Cells suspended in agarose medium (10% FBS and 0.3 agarose in medium) containing serial concentrations of Camphorataimide Bwere plated onto 6-well plate which was pre-coated with a layer of solidified agarose (10% FBS and 0.6% agarose in medium), and then incubated at 37° C. in a humidified atmosphere containing 5% CO2 for 1 week. At the end of incubation, cell colonies were fixed, stained with crystal violet, and then photographed using Nikon Eclipse TE2000-U microscope equipped with a Nikon Digital Camera DXM1200 and those colonies with size greater than 0.1 mm were counted.

[4] = test system: colon cancer cells (DLD-1, SW480 and SW620); assay: Cell migration assay (transwell); format: cell-based, human
Protocol: as §2, §3, §4

[5] = test system: colon cancer cells (DLD-1, SW480 and SW620); assay: Cell adhesion assay; format: cell-based, human; conditions: pretreated 24 hours, Matrigel coated plates, 8 hours
Protocol: FIG. 1C: Effect of Camphorataimide B on adhesion of colon cancer cells. The three colon cancer cells were pretreated with the indicated concentrations of Camphorataimide B for 24 hours, seeded on a matrix coated monolayer dish, and then incubated for 8 hours. After washing with PBS, the attached cells were photographed and quantitated.
FIG. 1D: Quantitation of effect of Camphorataimide B on adhesion of colon cancer cells. Quantitative results were presented as means±SD. Three independent experiments were performed for statistical analysis. * and ** represented P<0.01 and P<0.001 as compared to control, respectively.
Cells were incubated with serial concentration of Camphorataimide B in a complete medium for 24 hours, transferred in to 12-well Matrigel coated plates (10^5 cells per well), and incubated at 37° C. for 8 hours. After the incubation, non-adherent cells were removed by PBS washing and the attached cells were photographed and quantitated using a cell counter.

[6] = test system: Luciferase expressing DLD-1 cells; assay: In vivo xenograft mice model: oral treatment after Luc-DLD-1 injection; design: species or system Balb/c nude mice
Protocol: Luciferase expressing DLD-1 cells were suspended in phosphate buffered saline and injected into the spleen and peritoneal site of 5-week-old male Balb/c nude mice, respectively. After one week, the mice were orally administrated with 10 or 20 mg/kg Camphorataimide B or saline vehicle for one month (five mice for each group). IVIS luciferase in vivo images of liver and abdominal metastasis burden were monitored using bioluminescent imaging (BLI). Data represented mean±SD. * and ** represented P<0.01 and P<0.001 between the indicated groups, respectively.
FIG. 2G: Camphorataimide B suppressed hepatic and abdominal metastasis of DLD-1 cells in in vivo xenograft mice model. Luciferase expressing DLD-1 cells were suspended in phosphate buffered saline and injected into the spleen and peritoneal site of Balb/c nude mice, respectively. After one week, the mice were orally administrated with 10 or 20 mg/kg Camphorataimide B or saline vehicle (five mice for each group). After one month, the mice were sacrificed and the tissues were obtained and photographed.
FIG. 2H: Quantitation of results of FIG. 2G. Luciferase expressing DLD-1 cells were suspended in phosphate buffered saline and injected into the spleen and peritoneal site of Balb/c nude mice, respectively. After one week, the mice were orally administrated with 10 or 20 mg/kg Camphorataimide B or saline vehicle (five mice for each group). After 35 days, the mice were sacrificed and photographed. Total weight of tumor foci from the metastatic tissues were presented and quantitated. * and ** represented P<0.01 and P<0.001 between the indicated groups, respectively.
as §1

[7] = 20 and 30 μM, P<0.01 as compared to control

## CC(C)=CCOc1ccc(C2=C(CC(C)C)C(=O)NC2=O)cc1 [Camphorataimide B]
DLD-1 cells; DLD-1 cells pretreated with 30 μM for 24 hours, after 35 days
  attachment to colon tissue, number and size of tumors: rarely attached to colon tissue and formed fewer number and smaller size of tumors
DLD-1 cells; DLD-1 cells pretreated with 30 μM for 24 hours, day 35, compared to untreated cells
  hepatic and abdominal metastatic lesion (hematoxylin and eosin staining): significantly diminished
DLD-1 cells; Luc-DLD-1 cells pretreated with 30 μM for 24 hours, 35 days after implantation
  liver and abdominal metastasis burden (bioluminescent imaging): suppressed liver and abdominal metastasis
[1]
  regular architecture and expression level of F-actin: disrupted and decreased
[2]; [7]
  inhibition of invasiveness: significant
[2]; pretreated 24 hours, indicated concentrations, Matrigel transwell 16 hours
  invasiveness of colon cancer cells: dose-dependently inhibited
Breast cancer cells
  tumor growth in breast cancer cells: can inhibit tumor growth
[3]
  colony numbers: significantly reduced
[4]; [7]
  inhibition of migration: significant
[4]; pretreated 24 hours, indicated concentrations, transwell 12 hours
  migration of colon cancer cells: dose-dependently inhibited
[5]
  adherent cell numbers: significantly reduced
[6]; oral 10 and 20 mg/kg every three days for 1 month
  tumor size by bioluminescent imaging: smaller tumors than tumor group
[6]; oral 10 and 20 mg/kg every three days for 1 month, versus untreated tumors
  tumor growth and metastatic ability: grew slowly and less metastatic ability than untreated tumors
[6]; oral 10 and 20 mg/kg every three days, after 35 days
  increased gross weight of tumor: notably inhibited
